According to patent publication US10259779B2 (WAYNE STATE UNIVERSITY, priority 2016, dated 2019):

Columns and labels:
[1] = system: HDAC proteins in HeLa cell lysates; assay: Global HDAC inhibition with HeLa cell lysates (HDAC-Glo I/II substrate); assay type: biochemical; settings: for Deacetylase activity (%): Hela Lysate; for IC50: HeLa cell lysates
Description: HDAC activity was measured using the commercially available HDAC-Glo™ I/II substrate (Promega).
Lysates were prepared according to the reported procedure.^28 HeLa-S3 cells (purchased from Biovest) were lysed in lysis buffer (1×10^9 cells in 10 mL lysis buffer; 50 mM Tris-HCl, pH 8.0, 10% glycerol, 150 mM NaCl, 0.5% Triton X-100, and 1× protease inhibitor cocktail (GenDEPOT)) with rotation at 4° C. for 30 min. Cell debris was removed by centrifugation at 12000 rpm at 4° C. for 30 min. Protein concentration of the supernatant was determined using Bio-Rad protein assay (BioRad, Bradford reagent). Lysates were stored at −80° C.
To measure global HDAC inhibition, HeLa cell lysates (1 μg total protein) were mixed with HDAC-Glo™ buffer in polystyrene 96-well half area white plate (Corning) to a final volume of 12 μL, followed by addition of inhibitors in DMSO (0.5 μL) and incubation for 15 min at room temperature without rocking. An uninhibited control reaction was also included that contained DMSO (0.5 μL). Finally, deacetylase activity was measured using the HDAC-Glo™ assay kit (Promega) as per the manufacturer's protocol. Specifically, the HDAC-Glo™ substrate (1 mL) and developer ([…]) were first premixed to form the HDAC-Glo™ reagents. Then, to monitor deacetylase activity, HDAC-Glo™ reagent (5 μL) and HDAC-Glo™ buffer (7.5 μL) were added to each well (25 μL total volume) and incubated for 35 min at room temperature without rocking. The deacetylase activity was measured as luminescent signal using a GeniosPlus Fluorimeter (Tecan) at optimal gain. The concentrations of inhibitors reported in the dose-dependent studies (Table 2) are final concentrations after addition of HDAC-Glo™ reagent HDAC-Glo™ buffer.

HDAC3 = HDAC3 (Homo sapiens, UniProt O15379); assay: ELISA-based HDAC activity assay, HDAC3
HDAC1 = HDAC1 (Homo sapiens, UniProt Q13547); assay: ELISA-based HDAC activity assay, HDAC1
HDAC2 = HDAC2 (Homo sapiens, UniProt Q92769); assay: ELISA-based HDAC activity assay, HDAC2
recombinant HDAC8 = target: T1, recombinant HDAC8 (Homo sapiens, UniProt Q9BY41); assay: Recombinant HDAC8 inhibition (HDAC-Glo); assay type: biochemical; settings: for activity at 0.1 µM: 1.0 × 10^−7 M; for activity at 0.2 µM: 2.0 × 10^−7 M; for activity at […]: 2.5 × 10^−8 M; for activity at 0.05 µM: 5.0 × 10^−8 M; for HDAC8 fold selectivity HDAC1: HDAC8 over HDAC1; for HDAC8 fold selectivity HDAC1 / HDAC8 fold selectivity HDAC2 / HDAC8 fold selectivity HDAC3: calculated from IC50 values; for HDAC8 fold selectivity HDAC2: HDAC8 over HDAC2; for HDAC8 fold selectivity HDAC3: HDAC8 over HDAC3; for activity at 0.0125 µM: 1.25 × 10^−8 M; for fold selectivity for HDAC8 over HDAC1, 2, and 3: HDAC8 versus HDAC1, 2, 3
T1 construct: purchased BPS Bioscience
T1 sequence (Q9BY41 1-377): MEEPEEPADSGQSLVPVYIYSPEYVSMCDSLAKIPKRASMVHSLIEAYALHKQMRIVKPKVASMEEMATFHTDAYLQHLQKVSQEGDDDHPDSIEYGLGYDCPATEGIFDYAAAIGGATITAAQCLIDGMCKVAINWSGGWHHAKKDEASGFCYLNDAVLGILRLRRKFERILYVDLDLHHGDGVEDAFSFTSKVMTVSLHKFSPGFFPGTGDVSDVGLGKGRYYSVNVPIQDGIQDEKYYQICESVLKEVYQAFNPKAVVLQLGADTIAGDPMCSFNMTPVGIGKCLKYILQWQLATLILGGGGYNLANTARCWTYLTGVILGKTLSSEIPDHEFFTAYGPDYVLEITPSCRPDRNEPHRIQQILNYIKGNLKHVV
Description: Inhibitory activity with HDAC8 was measured using the following procedure. In a half area 96-well white opaque plate, recombinant HDAC8 (75 ng, BPS Bioscience) was incubated in HDAC-Glo™ buffer (39 μL) with inhibitor in DMSO (1 μL), or DMSO alone (1 μL) as a control, for 15 minutes at room temperature. HDAC-Glo™ reagent (10 μL) was added to each reaction and incubated for 30 min at room temperature. Luminescent signal was measured 30 minutes after adding the substrate reagent using a Geniosplus Fluorimeter (Tecan) at optimal gain. To determine IC50, the luminescent signal was first background corrected with the signal from a background control reaction where no HDAC8 enzyme was added.

[2] = read-out: Deacetylase activity (%) HDAC3
[3] = potency (IC50) to HDAC1, 2, and 3, range over HDAC1, 2, and 3
[4] = read-out: Deacetylase activity (%) HDAC1
[5] = read-out: Deacetylase activity (%) HDAC2
[6] = read-out: Deacetylase activity (%) HDAC8

Chain of HDAC2 (Q92769 whole entry): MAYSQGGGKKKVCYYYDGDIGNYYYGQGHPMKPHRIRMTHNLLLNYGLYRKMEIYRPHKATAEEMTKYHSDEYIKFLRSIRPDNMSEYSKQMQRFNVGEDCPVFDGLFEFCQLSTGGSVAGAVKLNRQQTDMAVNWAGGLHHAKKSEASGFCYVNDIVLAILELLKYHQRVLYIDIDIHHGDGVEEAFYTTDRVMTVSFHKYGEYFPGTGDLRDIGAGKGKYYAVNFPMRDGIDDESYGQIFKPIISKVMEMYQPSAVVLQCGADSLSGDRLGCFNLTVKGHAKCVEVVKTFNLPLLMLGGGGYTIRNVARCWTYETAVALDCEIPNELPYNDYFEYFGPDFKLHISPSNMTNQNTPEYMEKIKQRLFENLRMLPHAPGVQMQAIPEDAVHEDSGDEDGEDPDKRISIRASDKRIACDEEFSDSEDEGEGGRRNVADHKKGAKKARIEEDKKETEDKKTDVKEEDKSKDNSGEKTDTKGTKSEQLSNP
Chain of HDAC3 (O15379 whole entry): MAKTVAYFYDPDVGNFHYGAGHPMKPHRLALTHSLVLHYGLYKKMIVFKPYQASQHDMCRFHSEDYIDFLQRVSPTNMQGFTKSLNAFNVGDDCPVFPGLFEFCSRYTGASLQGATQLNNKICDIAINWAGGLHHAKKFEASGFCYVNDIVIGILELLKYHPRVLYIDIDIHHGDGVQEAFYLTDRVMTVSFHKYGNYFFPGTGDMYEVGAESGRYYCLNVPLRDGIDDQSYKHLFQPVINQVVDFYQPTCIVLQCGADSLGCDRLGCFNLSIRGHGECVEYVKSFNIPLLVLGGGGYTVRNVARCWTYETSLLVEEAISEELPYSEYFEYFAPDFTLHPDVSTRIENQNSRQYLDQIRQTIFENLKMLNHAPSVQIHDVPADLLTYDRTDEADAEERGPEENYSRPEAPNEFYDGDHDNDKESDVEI
Chain of HDAC3 (Q9Y618 whole entry partner): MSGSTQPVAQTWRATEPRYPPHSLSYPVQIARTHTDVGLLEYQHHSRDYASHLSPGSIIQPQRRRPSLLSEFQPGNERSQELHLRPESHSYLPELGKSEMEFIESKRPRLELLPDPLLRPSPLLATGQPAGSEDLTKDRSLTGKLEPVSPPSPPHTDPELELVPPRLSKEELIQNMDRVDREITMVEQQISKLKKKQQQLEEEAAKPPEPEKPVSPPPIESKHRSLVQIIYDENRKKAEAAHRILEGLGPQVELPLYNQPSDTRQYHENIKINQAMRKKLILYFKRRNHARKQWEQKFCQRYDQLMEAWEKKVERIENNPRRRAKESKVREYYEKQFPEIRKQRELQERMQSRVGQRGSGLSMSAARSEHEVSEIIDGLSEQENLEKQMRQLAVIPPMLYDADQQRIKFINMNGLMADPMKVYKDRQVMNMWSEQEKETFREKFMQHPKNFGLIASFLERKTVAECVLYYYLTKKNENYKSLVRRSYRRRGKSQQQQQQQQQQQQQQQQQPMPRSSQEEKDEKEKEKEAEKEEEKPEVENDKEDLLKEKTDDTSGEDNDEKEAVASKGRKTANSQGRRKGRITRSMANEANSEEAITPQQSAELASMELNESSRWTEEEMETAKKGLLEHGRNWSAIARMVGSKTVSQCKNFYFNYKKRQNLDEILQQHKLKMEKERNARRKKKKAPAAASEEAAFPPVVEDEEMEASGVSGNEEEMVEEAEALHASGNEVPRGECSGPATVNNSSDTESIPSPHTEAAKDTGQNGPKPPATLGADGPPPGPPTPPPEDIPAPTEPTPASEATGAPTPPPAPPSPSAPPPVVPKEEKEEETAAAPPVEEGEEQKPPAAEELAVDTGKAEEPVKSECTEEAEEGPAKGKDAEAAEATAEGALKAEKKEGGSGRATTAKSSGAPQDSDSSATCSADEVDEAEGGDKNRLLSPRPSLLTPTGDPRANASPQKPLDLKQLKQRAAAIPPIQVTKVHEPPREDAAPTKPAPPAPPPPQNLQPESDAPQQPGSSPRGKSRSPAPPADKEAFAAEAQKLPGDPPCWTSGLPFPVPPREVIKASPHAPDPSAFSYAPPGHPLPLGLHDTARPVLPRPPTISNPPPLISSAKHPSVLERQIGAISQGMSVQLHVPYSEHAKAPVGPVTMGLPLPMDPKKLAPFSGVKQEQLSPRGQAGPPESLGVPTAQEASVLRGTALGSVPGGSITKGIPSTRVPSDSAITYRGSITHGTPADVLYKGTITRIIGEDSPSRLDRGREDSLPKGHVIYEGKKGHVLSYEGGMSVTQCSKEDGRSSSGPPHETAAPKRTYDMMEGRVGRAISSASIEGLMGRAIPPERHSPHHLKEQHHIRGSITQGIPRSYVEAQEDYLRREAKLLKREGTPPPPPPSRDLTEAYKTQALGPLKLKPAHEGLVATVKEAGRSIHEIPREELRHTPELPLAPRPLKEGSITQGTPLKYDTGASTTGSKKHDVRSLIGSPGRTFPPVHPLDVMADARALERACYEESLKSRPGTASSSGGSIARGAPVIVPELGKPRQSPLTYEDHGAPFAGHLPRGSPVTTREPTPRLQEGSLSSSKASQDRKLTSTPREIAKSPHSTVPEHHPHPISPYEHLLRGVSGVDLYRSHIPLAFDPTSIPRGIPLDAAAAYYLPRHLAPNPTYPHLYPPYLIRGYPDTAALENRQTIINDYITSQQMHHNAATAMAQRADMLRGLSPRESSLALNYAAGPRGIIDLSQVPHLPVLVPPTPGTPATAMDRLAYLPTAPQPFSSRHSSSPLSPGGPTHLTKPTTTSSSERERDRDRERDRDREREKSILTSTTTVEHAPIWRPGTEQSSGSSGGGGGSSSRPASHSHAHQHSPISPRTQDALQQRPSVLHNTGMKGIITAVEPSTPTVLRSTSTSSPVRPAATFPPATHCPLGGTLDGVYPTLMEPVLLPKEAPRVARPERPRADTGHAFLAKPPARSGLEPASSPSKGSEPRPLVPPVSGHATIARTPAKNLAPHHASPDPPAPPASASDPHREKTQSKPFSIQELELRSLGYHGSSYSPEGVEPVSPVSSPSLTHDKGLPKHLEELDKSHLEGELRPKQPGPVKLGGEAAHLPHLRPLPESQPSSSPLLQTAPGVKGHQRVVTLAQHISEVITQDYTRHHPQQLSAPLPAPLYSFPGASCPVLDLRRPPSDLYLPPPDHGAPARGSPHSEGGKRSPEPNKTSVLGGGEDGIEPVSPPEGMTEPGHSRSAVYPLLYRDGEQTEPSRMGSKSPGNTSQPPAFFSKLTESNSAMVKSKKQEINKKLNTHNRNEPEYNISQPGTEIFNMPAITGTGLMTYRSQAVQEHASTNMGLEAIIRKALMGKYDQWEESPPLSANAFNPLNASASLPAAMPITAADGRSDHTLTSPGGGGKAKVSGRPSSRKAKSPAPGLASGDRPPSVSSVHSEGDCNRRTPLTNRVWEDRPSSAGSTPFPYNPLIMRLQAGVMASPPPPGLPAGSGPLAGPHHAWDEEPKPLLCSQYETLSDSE
Chain of HDAC1 (Q13547 whole entry): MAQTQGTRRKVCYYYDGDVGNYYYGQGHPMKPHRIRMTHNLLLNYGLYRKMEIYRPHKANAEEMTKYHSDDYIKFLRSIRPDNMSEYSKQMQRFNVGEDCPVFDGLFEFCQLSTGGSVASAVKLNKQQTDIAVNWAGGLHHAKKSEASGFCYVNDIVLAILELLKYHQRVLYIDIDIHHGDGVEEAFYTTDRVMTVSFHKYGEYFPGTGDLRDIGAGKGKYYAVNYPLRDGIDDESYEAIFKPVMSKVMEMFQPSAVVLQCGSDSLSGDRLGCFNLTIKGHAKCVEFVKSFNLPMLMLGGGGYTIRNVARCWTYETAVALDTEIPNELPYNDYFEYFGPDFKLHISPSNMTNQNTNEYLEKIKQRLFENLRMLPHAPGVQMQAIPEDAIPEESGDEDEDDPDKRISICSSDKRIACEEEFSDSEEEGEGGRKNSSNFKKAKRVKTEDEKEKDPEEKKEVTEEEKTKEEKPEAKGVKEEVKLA

CCC(CCCC(=O)Nc1ccccc1)CCC(=O)NO (racemic) [Compound 1b, 4-ethyl-N^1-hydroxy-N^8-phenyloctanediamide]
Deacetylase activity (%) ([1]; 2.4 × 10^−5 M): 31 ± 2% | Deacetylase activity (%) ([1]; 3.0 × 10^−6 M): 92 ± 1% | Deacetylase activity (%) ([1]; 4.8 × 10^−5 M): 12 ± 1% | Deacetylase activity (%) ([1]; 6.0 × 10^−6 M): 82 ± 7% | IC50 [1]: 14 ± 1 µM | Deacetylase activity (%) ([1]; […] 10^−5 M): 53 ± 3% | IC50 (HDAC3): 6 µM | activity at 1 µM (HDAC3; [2]): 83 ± 7% | activity at 2 µM (HDAC3; [2]): 71 ± 4% | activity at 4 µM (HDAC3; [2]): 64 ± 2% | activity at 8 µM (HDAC3; [2]): 52 ± 6% | activity at 16 µM (HDAC3; [2]): 17 ± 8% | IC50 (HDAC1; IC50 values (nM) HDAC1): 4400 nM | IC50 (HDAC1; [3]): 4400 to 6000 nM | activity at 1 µM (HDAC1; [4]): 81 ± 3% | activity at 2 µM (HDAC1; [4]): 68 ± 5% | activity at 4 µM (HDAC1; [4]): 58 ± 1% | activity at 8 µM (HDAC1; [4]): 32 ± 4% | activity at 16 µM (HDAC1; [4]): 19 ± 1% | IC50 (HDAC2): 4.9 µM | activity at 1 µM (HDAC2; [5]): 86 ± 2% | activity at 2 µM (HDAC2; [5]): 69 ± 1% | activity at 4 µM (HDAC2; [5]): 59 ± 2% | activity at 8 µM (HDAC2; [5]): 34 ± 7% | activity at 16 µM (HDAC2; [5]): 23 ± 2% | IC50 (recombinant HDAC8): 130 ± 3 nM | activity at 0.1 µM (recombinant HDAC8; [6]): 55 ± 2% | activity at 0.2 µM (recombinant HDAC8; [6]): 39 ± 1% | activity at […] (recombinant HDAC8; [6]): 83 ± 2% | activity at 0.4 µM (recombinant HDAC8; 4.0 × 10^−7 M, read-out: Deacetylase activity (%) HDAC8): 25 ± 1% | activity at 0.05 µM (recombinant HDAC8; [6]): 73 ± 2% | HDAC8 fold selectivity HDAC1 (recombinant HDAC8): 34 fold | HDAC8 fold selectivity HDAC2 (recombinant HDAC8): 38 fold | HDAC8 fold selectivity HDAC3 (recombinant HDAC8): 46 fold

CCCCCCC(CCCC(=O)Nc1ccccc1)CCC(=O)NO (racemic) [Compound 1d, 4-hexyl-N^1-hydroxy-N^8-phenyloctanediamide]
Deacetylase activity (%) ([1]; 1.0 × 10^−4 M): 35 ± 3% | Deacetylase activity (%) ([1]; 1.25 × 10^−5 M): 87 ± 1% | Deacetylase activity (%) ([1]; 2.0 × 10^−4 M): 21 ± 3% | Deacetylase activity (%) ([1]; 5.0 × 10^−5 M): 56 ± 2% | IC50 [1]: 60 ± 1 µM | Deacetylase activity (%) ([1]; […] 10^−5 M): 73 ± 2% | IC50 (HDAC3): 30 µM | activity at 1.25 µM (HDAC3; [2]): 100 ± 6% | activity at 10 µM (HDAC3; [2]): 88 ± 2% | activity at 20 µM (HDAC3; [2]): 56 ± 4% | activity at 40 µM (HDAC3; [2]): 42 ± 5% | activity at 80 µM (HDAC3; [2]): 25 ± 1% | activity at 160 µM (HDAC3; [2]): 5 ± 3% | IC50 (HDAC1; IC50 values (nM) HDAC1): 35000 nM | IC50 (HDAC1; [3]): 30000 to 38000 nM | activity at 1.25 µM (HDAC1; [4]): 97 ± 3% | activity at 10 µM (HDAC1; [4]): 83 ± 4% | activity at 20 µM (HDAC1; [4]): 67 ± 4% | activity at 40 µM (HDAC1; [4]): 46 ± 1% | activity at 80 µM (HDAC1; [4]): 26 ± 2% | activity at 160 µM (HDAC1; [4]): 13 ± 1% | IC50 (HDAC2): 38 µM | activity at 1.25 µM (HDAC2; [5]): 101 ± 2% | activity at 10 µM (HDAC2; [5]): 79 ± 6% | activity at 20 µM (HDAC2; [5]): 73 ± 2% | activity at 40 µM (HDAC2; [5]): 46 ± 6% | activity at 80 µM (HDAC2; [5]): 31 ± 2% | activity at 160 µM (HDAC2; [5]): 16 ± 1% | IC50 (recombinant HDAC8): 79 ± 3 nM | activity at 0.1 µM (recombinant HDAC8; [6]): 42 ± 4% | activity at 0.0125 µM (recombinant HDAC8; [6]): 92 ± 1% | activity at 0.2 µM (recombinant HDAC8; [6]): 27 ± 2% | activity at […] (recombinant HDAC8; [6]): 78 ± 6% | activity at 0.05 µM (recombinant HDAC8; [6]): 63 ± 4% | HDAC8 fold selectivity HDAC1 (recombinant HDAC8): 440 fold | HDAC8 fold selectivity HDAC2 (recombinant HDAC8): 480 fold | HDAC8 fold selectivity HDAC3 (recombinant HDAC8): 380 fold | fold selectivity for HDAC8 over HDAC1, 2, and 3 (recombinant HDAC8): ≥ 380 fold

O=C(CCC(CCCC(=O)Nc1ccccc1)Cc1ccccc1)NO (racemic) [Compound 1f, 4-benzyl-N^1-hydroxy-N^8-phenyloctanediamide]
Deacetylase activity (%) ([1]; 1.0 × 10^−4 M): 35 ± 5% | Deacetylase activity (%) ([1]; 1.25 × 10^−5 M): 88 ± 4% | Deacetylase activity (%) ([1]; 2.0 × 10^−4 M): 19 ± 2% | Deacetylase activity (%) ([1]; 5.0 × 10^−5 M): 58 ± 4% | IC50 [1]: 62 ± 1 µM | Deacetylase activity (%) ([1]; […] 10^−5 M): 74 ± 5% | IC50 (HDAC3): 42 µM | activity at 5 µM (HDAC3; [2]): 90 ± 3% | activity at 10 µM (HDAC3; [2]): 87 ± 4% | activity at 20 µM (HDAC3; [2]): 63 ± 5% | activity at 40 µM (HDAC3; [2]): 55 ± 3% | activity at 80 µM (HDAC3; [2]): 33 ± 2% | activity at 160 µM (HDAC3; [2]): 19 ± 2% | IC50 (HDAC1; potency (IC50) with HDAC1, text, Table 4 value in μM): 29000 nM | activity at 5 µM (HDAC1; [4]): 87 ± 4% | activity at 10 µM (HDAC1; [4]): 75 ± 5% | activity at 20 µM (HDAC1; [4]): 58 ± 5% | activity at 40 µM (HDAC1; [4]): 44 ± 2% | activity at 80 µM (HDAC1; [4]): 27 ± 2% | activity at 160 µM (HDAC1; [4]): 16 ± 1% | IC50 (HDAC2): 32 µM | activity at 5 µM (HDAC2; [5]): 92 ± 4% | activity at 10 µM (HDAC2; [5]): 74 ± 4% | activity at 20 µM (HDAC2; [5]): 60 ± 1% | activity at 40 µM (HDAC2; [5]): 47 ± 1% | activity at 80 µM (HDAC2; [5]): 27 ± 5% | activity at 160 µM (HDAC2; [5]): 20 ± 1% | IC50 (recombinant HDAC8): 57 nM | activity at 0.1 µM (recombinant HDAC8; [6]): 34 ± 2% | activity at 0.0125 µM (recombinant HDAC8; [6]): 87 ± 4% | activity at 0.2 µM (recombinant HDAC8; [6]): 21 ± 1% | activity at […] (recombinant HDAC8; [6]): 73 ± 2% | activity at 0.05 µM (recombinant HDAC8; [6]): 51 ± 1% | HDAC8 fold selectivity HDAC1 (recombinant HDAC8): 510 fold | HDAC8 fold selectivity HDAC2 (recombinant HDAC8): 670 fold | HDAC8 fold selectivity HDAC3 (recombinant HDAC8): 740 fold | fold selectivity for HDAC8 over HDAC1, 2, and 3 (recombinant HDAC8): ≥ 510 fold
